The results in this text go back to article PMC8398472, “Anticancer Diiron Vinyliminium Complexes: A Structure–Activity Relationship Study” (Pharmaceutics, 2021).

The subject of one experiment is human ovarian carcinoma cisplatin-resistant A2780cisR. The experiment can be described thus: Cytotoxicity, WST-1 cell viability assay, A2780cisR. Format: cell-based. Particulars: 72 h exposure. Here is the method:
In vitro cytotoxicity investigations were carried out by using human ovarian carcinoma cisplatin-sensitive A2780 (ECACC93112519), human ovarian carcinoma cisplatin-resistant A2780cisR (ECACC 93112517) and mouse embryo fibroblasts Balb/3T3 clone A31 (ATCC CCL-163) cell lines. A2780 and A2780cisR were purchased from the European Collection of Authenticated Cell Cultures (ECACC), and Balb/3T3 clone A31 cell line from the American Type Culture Collection (ATCC).
A2780 and A2780cisR cells were routinely cultured in RPMI 1640 (Merck) containing 2 mM of L-glutamine (Merck), 1% of penicillin/streptomycin solution (Merck—10 000 U mL^−1: 10 mg mL^−1), 10% of fetal bovine serum (Merck—FBS) and antimycotic (InvivoGen, USA), and Balb/3T3 clone A31 in Dulbecco’s modified Eagle medium (Merck—DMEM) supplemented with 4 mM of L-glutamine, 1% of penicillin/streptomycin solution, 10% of calf serum (Merck) and antimycotic. […] The cultures were maintained at 37 °C and in a 5% CO2-enriched atmosphere.
A2780, A2780cisR and Balb/3T3 clone A31 cells were seeded in 96-well tissue culture polystyrene plates at a concentration of 3 × 10^3, 6 × 10^3 and 1 × 10^3 cells per well, respectively. After overnight incubation, the cells were treated with different concentrations (0–100 µM) of the selected compounds for 72 h at 37 °C in a 5% atmosphere of CO2. Stock solutions of compounds were prepared in DMSO and sequentially diluted in medium (final DMSO concentration of 0.5%). […] At the end of the incubation time, cell viability was assessed by means of WST-1 tetrazolium salt reagent (Roche). Briefly, cells were incubated for 4 h with the tetrazolium salt reagent diluted 1:10, at 37 °C and 5% CO2. Measurements of formazan dye absorbance, which directly correlates with the number of viable cells, were carried out with a micro-plate reader (Biorad) at 450 nm, using 655 nm as reference wavelength. The 50% inhibitory concentration (IC50) refers to compound concentration at which 50% of cell death is observed with respect to the control. For each tested compound, assay was performed on triplicate. The concentration effect curves were generated by nonlinear regression curves (GraphPad Prism Software, 2021) and the data reported as mean ± standard deviation.
(In general: Tetrazolium dyes change colour on reduction, which living cells bring about.)
As usually defined, the IC50 is the concentration that inhibits the measured activity by half. The low end stands for inhibition by little substance, the high end for a need for much substance. As to “[Fe2Cp2(CO)(μ-CO){μ-η^1:η^3-C^3(Me)C^2(Me)C^1NMe(4-C6H4OMe)}]CF3SO3 [Compound 6c]”, the IC50 was determined as 17 ± 3 µM. “[Fe2Cp2(CO)(μ-CO){μ-η^1:η^3-C^3(Me)C^2(Me)C^1NMe(CH2Ph)}]CF3SO3 [Compound 5b]” yielded an IC50 of 12 ± 4 µM. Turning to “[Fe2Cp2(CO)(μ-CO){μ-η^1:η^3-C^3(Me)C^2(Me)C^1NMe(Cy)}]CF3SO3 [Compound 4c]”, inhibition was half-maximal at 11.4 ± 0.9 µM (IC50). As to “[Fe2Cp2(CO)(μ-CO){μ-η^1:η^3-C^3(Me)C^2HC^1NMe(Cy)}]CF3SO3 [Compound 4a]”, the IC50 worked out at 11.6 ± 1.3 µM.

The substance “[Fe2Cp2(CO)(μ-CO){μ-η^1:η^3-C^3(Ph)C^2HC^1NMe(CH2CH = CH2)}]CF3SO3 [Compound 3b]” returned an IC50 of 29 ± 3 µM. Compared with the last substance, the IC50 is about 2.5-fold higher.

The experiment is the same for the next values; noted with them: Balb/3T3 compared to A2780cisR.
For “[Fe2Cp2(CO)(μ-CO){μ-η^1:η^3-C^3(Me)C^2(Me)C^1NMe(Cy)}]CF3SO3 [Compound 4c]”, the “Selectivity index vs A2780cisR” value turned out to be 8.
